Results on 17 compounds are retold here after US7268159B2, “Substituted indoles” (Wyeth, priority 2003, dated 2007).

Test [1] has as its target T1, recombinant human plasminogen activator inhibitor-1 (PAI-1) (Homo sapiens, UniProt P05121).
T1 construct: purchased Molecular Innovations, Royal Oak, Mich
Briefly: Primary screen for the PAI-1 inhibition (residual tPA activity, Spectrozyme-tPA chromogenic substrate). The test is classed as biochemical. The note with it: 140 nM PAI-1, 70 nM tPA, pH 6.6; for inhibition at 10 µM: 10 μM test compound; for inhibition at 25 µM: 25 μM test compound. Here is the method:
Test compounds are dissolved in DMSO at a final concentration of 10 mM, then diluted 100× in physiologic buffer. The inhibitory assay is initiated by the addition of the test compound (1-100 μM final concentration, maximun DMSO concentration of 0.2%) in a pH 6.6 buffer containing 140 nM recombinant human plasminogen activator inhibitor-1 (PAI-1; Molecular Innovations, Royal Oak, Mich.). Following a 1 hour incubation at room temperature, 70 nM of recombinant human tissue plasminogen activator (tPA) is added, and the combination of the test compound, PAI-1 and tPA is incubated for an additional 30 minutes. Following the second incubation, Spectrozyme-tPA (American Diagnostica, Greenwich, Conn.), a chromogenic substrate for tPA, is added and absorbance read at 405 nm at 0 and 60 minutes. Relative PAI-1 inhibition is equal to the residual tPA activity in the presence of the test compound and PAI-1. Control treatments include the complete inhibition of tPA by PAI-1 at the molar ratio employed (2:1), and the absence of any effect of the test compound on tPA alone.

The target of the next test is human PAI-1 (Homo sapiens, UniProt P05121). Description: Assay for determining IC50 of inhibition of PAI-1 (active PAI-1 bound to tPA-coated plate, antibody detection). The class given is binding. The note with it: human PAI-1 50 ng/ml, pH 7.5. On the procedure: This assay is based upon the non-SDS dissociable interaction between tPA and active PAI-1. Assay plates are initially coated with human tPA (10 μg/ml). Test compounds of the present invention are dissolved in DMSO at 10 mM, then diluted with physiologic buffer (pH 7.5) to a final concentration of 1-50 μM. Test compounds are incubated with human PAI-1 (50 ng/ml) for 15 minutes at room temperature. The tPA-coated plate is washed with a solution of 0.05% Tween 20 and 0.1% BSA, then the plate is blocked with a solution of 3% BSA. An aliquot of the substituted indole/PAI-1 solution is then added to the tPA-coated plate, incubated at room temperature for 1 hour, and washed. Active PAI-1 bound to the plate is assessed by adding an aliquot of a 1:1000 dilution of the 33B8 monoclonal antibody against human PAI-1, and incubating the plate at room temperature for 1 hour (Molecular Innovations, Royal Oak, Mich.) The plate is again washed, and a solution of goat anti-mouse IgG-alkaline phosphatase conjugate is added at a 1:50,000 dilution in goat serum. […] The plate is incubated 45 minutes at room temperature, and color development is determined at OD405 nm. The quantitation of active PAI-1 bound to tPA at varying concentrations of the test compound is used to determine the IC50. Results are analyzed using a logarithmic best-fit equation. […]
Chain of human PAI-1 (P05121 24-402): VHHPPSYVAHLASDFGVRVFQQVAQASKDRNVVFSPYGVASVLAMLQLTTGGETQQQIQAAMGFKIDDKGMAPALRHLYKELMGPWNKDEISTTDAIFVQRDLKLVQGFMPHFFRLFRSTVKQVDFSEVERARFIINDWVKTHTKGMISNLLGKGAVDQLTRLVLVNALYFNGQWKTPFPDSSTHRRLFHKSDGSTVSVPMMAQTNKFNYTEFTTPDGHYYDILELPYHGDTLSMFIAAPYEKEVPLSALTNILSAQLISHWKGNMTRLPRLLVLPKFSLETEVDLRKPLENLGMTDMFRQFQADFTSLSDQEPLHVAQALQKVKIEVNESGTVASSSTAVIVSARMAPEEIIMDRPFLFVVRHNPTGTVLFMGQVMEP

T1 sequence (P05121 24-402): as above

The inhibition is the share of the control response that was lost under treatment. For `O=C(O)c1cn(Cc2ccc(NS(=O)(=O)c3ccc(-c4ccccc4)cc3)cc2)c2ccccc12` [Compound 7, 1-{4-[(1,1′-biphenyl-4-ylsulfonyl)amino]benzyl}-1H-indole-3-carboxylic acid], in test [1], the inhibition at 10 µM was 25% and the inhibition at 25 µM came to 27%. Taken in the same sequence, the figures for `CS(=O)(=O)Nc1ccc(Cn2c(C(=O)O)c(-c3ccccc3)c3ccccc32)cc1` [Compound 12, 1-{4-[(methylsulfonyl)amino]benzyl}-3-phenyl-1H-indole-2-carboxylic acid] were 42% and 49%. Taken in the same sequence, the figures for `O=C(O)c1cccc2c1ccn2Cc1ccc(NS(=O)(=O)c2ccc(-c3ccccc3)cc2)cc1` [Compound 9, 1-{4-[(1,1′-biphenyl-4-ylsulfonyl)amino]benzyl}-1H-indole-4-carboxylic acid] were 26% and 35%.

As to `O=C(O)c1ccc2c(ccn2Cc2ccc(NS(=O)(=O)c3ccc(-c4ccccc4)cc3)cc2)c1` [Compound 5, 1-{4-[(1,1′-biphenyl-4-ylsulfonyl)amino]benzyl}-1H-indole-5-carboxylic acid], in test [1], the inhibition at 25 µM was determined as 22%. As for `O=C(O)c1c(-c2cccs2)c2ccccc2n1Cc1ccc(Nc2ccccc2)cc1` [Compound 17, 1-(4-anilinobenzyl)-3-thien-2-yl-1H-indole-2-carboxylic acid], in test [1], the inhibition at 10 µM came to 25% and the inhibition at 25 µM amounted to 35%. With `CS(=O)(=O)Nc1ccc(Cn2c(C(=O)O)c(-c3cccs3)c3ccccc32)cc1` [Compound 14, 1-{4-[(methylsulfonyl)amino]benzyl}-3-thien-2-yl-1H-indole-2-carboxylic acid], in test [1], the inhibition at 10 µM is 45% and the inhibition at 25 µM was 53%. As for `O=C(O)c1c(-c2cccs2)c2ccccc2n1Cc1ccc(NS(=O)(=O)c2ccccc2)cc1` [Compound 13, 1-{4-[(phenylsulfonyl)amino]benzyl}-3-thien-2-yl-1H-indole-2-carboxylic acid], in test [1], the inhibition at 10 µM is 50% and the inhibition at 25 µM is 79%. Consider `CC(C)(C)c1ccc(S(=O)(=O)Nc2ccc(Cn3cc(C(=O)O)c4ccccc43)cc2)cc1` [Compound 6, 1-(4-{[(4-tert-butylphenyl)sulfonyl]amino}benzyl)-1H-indole-3-carboxylic acid], for which, in test [1], the inhibition at 10 µM worked out at 19% and the inhibition at 25 µM was 28%.

Usually IC50 stands for the concentration that gives 50% inhibition. High values mean weaker potency, low ones greater potency. `Cc1ccc(C)n1-c1ccc(Cn2c(C(=O)O)c(-c3ccccc3)c3ccccc32)cc1` [Compound 15, 1-[4-(2,5-dimethyl-1H-pyrrol-1-yl)benzyl]-3-phenyl-1H-indole-2-carboxylic acid]: in test [1], the inhibition at 10 µM is 53% and the inhibition at 25 µM is 69%. This compound displayed an IC50 at human PAI-1 of 2510 nM. Turning to `CC(C)(C)c1ccc(S(=O)(=O)Nc2ccc(Cn3ccc4cc(C(=O)O)ccc43)cc2)cc1` [Compound 4, 1-(4-{[(4-tert-butylphenyl)sulfonyl]amino}benzyl)-1H-indole-5-carboxylic acid], the inhibition at 25 µM in test [1] was 27%. On to `O=C(O)c1cc2ccccc2n1Cc1ccc(NS(=O)(=O)c2ccc(-c3ccccc3)cc2)cc1` [Compound 3, 1-{4-[(1,1′-biphenyl-4-ylsulfonyl)amino]benzyl}-1H-indole-2-carboxylic acid], for which the inhibition at 25 µM in test [1] is 66%. Consider `O=C(O)c1ccc2ccn(Cc3ccc(NS(=O)(=O)c4ccc(-c5ccccc5)cc4)cc3)c2c1` [Compound 10, 1-{4-[(1,1′-biphenyl-4-ylsulfonyl)amino]benzyl}-1H-indole-6-carboxylic acid], for which, in test [1], the inhibition at 10 µM came out at 26% and the inhibition at 25 µM is 30%. With `O=C(O)c1cc2ccccc2n1-c1ccc(NS(=O)(=O)c2ccc(OC(F)(F)F)cc2)cc1` [Compound 1, 1-[4-({[4-(trifluoromethoxy)phenyl]sulfonyl}amino)phenyl]-1H-indole-2-carboxylic acid], in test [1], the inhibition at 10 µM amounted to 39% and the inhibition at 25 µM was determined as 40%.

Consider `O=C(O)c1cc2ccccc2n1-c1ccc(-n2cccc2)cc1` [Compound 2, 1-[4-(1H-pyrrol-1-yl)phenyl]-1H-indole-2-carboxylic acid], for which, in test [1], the inhibition at 10 µM is 15% and the inhibition at 25 µM is 35%. Consider `CC(C)(C)c1ccc(S(=O)(=O)Nc2ccc(Cn3ccc4c(C(=O)O)cccc43)cc2)cc1` [Compound 8, 1-(4-{[(4-tert-butylphenyl)sulfonyl]amino}benzyl)-1H-indole-4-carboxylic acid], for which, in test [1], the inhibition at 10 µM turned out to be 27% and the inhibition at 25 µM stood at 47%. With `O=C(O)c1c(-c2ccccc2)c2ccccc2n1Cc1ccc(NS(=O)(=O)c2ccccc2)cc1` [Compound 11, 3-phenyl-1-{4-[(phenylsulfonyl)amino]benzyl}-1H-indole-2-carboxylic acid], in test [1], the inhibition at 10 µM worked out at 51% and the inhibition at 25 µM was found to be 71%.

In the case of `O=C(O)c1c(-c2ccccc2)c2ccccc2n1Cc1ccc(Nc2ccccc2)cc1` [Compound 16, 1-(4-anilinobenzyl)-3-phenyl-1H-indole-2-carboxylic acid], in test [1], the inhibition at 10 µM stood at 26% and the inhibition at 25 µM stood at 32%.
